According to patent US5587509A, “Caged caboxyl compounds and use thereof” (Cornell Research Foundation, Inc., priority 1995, dated 1996):
Where two headings read alike, the source gives them in different places.

Legend:
[1] = system: glycine receptor channels; test: whole-cell current recording, cell-flow with mixer (effect of the caged compound or photoproduct on glycine receptor channels); type: cell-based, mouse; settings: for effect on glycine receptors or their response to glycine: mouse cerebral cortical neurons, pH 7.1
Experimental: (§1) Whole-cell current recording was performed as follows. The preparation of embryonic mouse cortical cells was as described by Geetha et al. (Biochemistry 31:5488-5499 (1992)). The extracellular recording buffer was 145 mM NaCl, 1.8 MM MgCl2, 1 mM CaCl2 and 10 mM Hepes (pH 7.4) and the intracellular buffer was 145 mM CsCl, 1 mM CaCl2, 10 mM EGTA [ethyleneglycol-bis-(beta-aminoethyl ether) N,N,N',N'-tetraacetic acid] and 10 mM Hepes (pH 7.2) The flow method used to equilibrate receptors on the surface of a single cell with ligands within 10 ms has been described by Udgaonkar et al (Proc. Natl. Acad. Sci. USA, 84:8758-8762 (1987)). The whole-cell current responses were determined in mouse cortical neurons, pH […], room temperature (22° C.). Caged glycine solutions at pH 4.0 in extracellular buffer but containing only 5 mM Hepes were mixed in 1:1 proportions with extracellular recording buffer containing 20 mM Hepes at pH 7.4 using a low volume T-tube mixer before the solutions entered the U-tube that delivered the solution stream at pH 7.1 to the cell at a linear flow rate of 0.5 cm s^-1. The whole-cell current due to opening of glycine receptor channels was recorded using the technique of Hamill et al. (Pflugers Arch, 391:85-100 (1981)). All other details of the cell-flow technique, and the combination of the cell-flow technique with the laser-pulse photolysis technique in which the whole-cell current is measured after photolysis of caged neurotransmitter, were as described by Matsubara et al (Biochemistry, 31:5507-5514 (1992)). Hydrolysis of the caged glycine before it was applied to a cell was prevented by the mixer strategy.
Specifically, the caged glycine solution with and without free glycine at pH 4.0 was rapidly mixed with extracellular buffer to produce a solution of pH 7.1 before flowing it over the cell. A control solution of 85 μM free glycine (170 μM glycine in extracellular buffer mixed with pH 4 buffer used to stabilize the ester) is shown by the solid trace in FIG. 3. […] Identical current responses were obtained when 170 μM glycine in pH 7.4 buffer was mixed with pH 4 buffer when the solutions were altemately applied from the two different supply lines of the mixer (data not shown).

[2] = laser-pulse photolysis, transient absorbance (photolysis speed and product quantum yield); type: physicochemical
Experimental: (§2) To evaluate the photolysis characteristics of the 2-methoxy-5-nitro glycine ester of Example I, laser pulse photolysis was performed and the results thereof are shown in FIG. 2 by the rapid absorbance jump produced by the photolysis of the ester. The light source used to initiate the photolysis reaction was a Lumonics TE861M excimer laser. The lasing medium was either 2% N2 in helium, which produced a primary energy of 6 mJ at 337 nm with a 4 ns pulse width, or a XeCl mix that produced 70 rnJ at 308 nm in 6 ns pulses. For cell photolysis, the 337 nm light was delivered to the microscope stage for use in whole-cell recording measurements with a 300 μm core optical fiber (FiberGuide Industries); 10% of the primary energy was typically coupled through the fiber to the cell preparation. Rapid absorbance changes of caged compound solutions were measured with a transient absorbance spectrophotometer in which 308 nm light from the primary output of the laser was focussed into a 2×2 mm quartz cuvet and the absorbance changes produced were monitored at right angles to the laser beam with a single beam transient spectrophotometer whose signal transfer parameters effectively produced 500 kHz filtering of the rapid absorbance jump. The photocurrent was amplified with a Thorn EMI model Al preamplifier, which also acted as a low pass filter with cutoff dependent on the amplification selected; the cutoff frequencies were between 50 KHz and 50 MHz. The rapid absorbance jump produced in the caged ester solution by single laser flashes could be digitized at up to 2 MHz with a digital oscilloscope and in each case the preamplifier filtering was matched to the digitization rate of the data collection. Measurements of the pulsed UV light energy for quantum yield determinations were made with a Gentec ED200 calibrated thermopile.
Absorbance measurements of the fast jump were made over the range 350 to 450 nm and the resulting profile matched the absorbance spectrum of the expected 2-methoxy-5-nitrophenol. Measurements of triplet quenching in the reaction of 2-methoxy-5-nitrophenyl acetate by Kuzmic et al. (supra) indicate that the lifetime of the photohydrolysis reaction is 0.15 μs. The maximum time resolution of the transient absorbance measurements in our study is 0.5 μs.
The product quantum yield from photolysis of the caged glycine was estimated by comparison to the photolysis of 2-methoxy-5-nitrophenyl acetate, which was used as an actinometric standard. A quantum yield of 0.22 was found for a 1 mM solution of 2-methoxy-5-nitrophenyl acetate in 100 mM phosphate buffer at pH 7.0 that also contained 20% acetonitrile to substituted for caged glycine.

[3] = cited from earlier work
[4] = system: acetylcholine receptor; settings: Milburn et al.; cited from earlier work
[5] = spontaneous hydrolysis in buffer followed spectrophotometrically; type: physicochemical
Experimental: A 1.1 mM solution of the caged glycine of Example I was prepared in extracellular recording buffer at pH 7.1. […] The caged glycine ester was rapidly dissolved in buffers to produce approximately 800 μM solutions of the caged compound and immediately transferred to a 2×2 cuvette in a Hewlett Packard model 8452A diode array spectrophotometer set up to collect spectra at timed intervals. The initial rates of the hydrolysis reaction were obtained from absorbance measurements at 310, 360 and 384 nm after subtraction of the absorbance of the completely hydrolyzed solution. The spectra of the fully hydrolyzed solutions were identical in all cases to reference spectra of 2-methoxy-5-nitrophenol at the different pH values. The upper trace at 310 nm represents the spectrum of the compound before hydrolysis. The lower trace at 310 nm corresponds to the fully hydrolyzed material and matches the spectrum of 2-methoxy-5-nitrophenol at pH 7.0. The spectra were acquired at 0, 1, 2, 3, 4, 6, 8, 11 and 60 min after the initial rapid dissolution in buffer. All measurements were performed at room temperature (22°-24° C.).

[6] = system: glycine receptor channels; test: whole-cell current after laser-pulse photolysis of caged glycine (cell-flow laser-pulse photolysis); type: cell-based, mouse; settings: for rate of rising phase of whole-cell current: 700 μM caged compound, pH 7.1
Experimental: as §2
as §1, with “strategy. […]” for “strategy.”

SMILES: COc1ccc([N+](=O)[O-])cc1O [2-methoxy-5-nitrophenol]
- effect on glycine receptors or their response to glycine [1]: Neither the caged compound nor the 2-methoxy-5-nitrophenol photolysis product affected the glycine receptors or modified their response to glycine

SMILES: COc1ccc([N+](=O)[O-])cc1OC(C)=O [2-methoxy-5-nitrophenyl acetate, reference compound]
- quantum yield ([2]; 1 mM solution in 100 mM phosphate buffer at pH 7.0 with 20% acetonitrile, actinometric standard): 0.22
- lifetime of the photohydrolysis reaction ([3]; triplet quenching measurements, Kuzmic et al.): 0.15 μs

SMILES: O=C(O)CNC(C(=O)O)c1ccccc1[N+](=O)[O-] (stereo not shown) [N-(.varies.-carboxy-2-nitrobenzyl)glycine]
- product quantum yield ([3]; Billington et al.): 0.02
- photolysis time constant τ ([3]; pH 7.5, Billington et al.): 1.6 ms

SMILES: C[N+](C)(C)CCOC(=O)NC(C(=O)O)c1ccccc1[N+](=O)[O-] (stereo not shown) [caged carbamoylcholine]
- time to liberate carbamoylcholine by a laser pulse ([3]; laser pulse, Milburn et al.): ≤ 120 μs
- photolysis t1/2 ([3]; photolysis to carbamoylcholine, Milburn et al.): 40 μs
- biological activity before photolysis [4]: biologically inert

SMILES: COc1ccc([N+](=O)[O-])cc1OC(=O)CN [caged glycine, 2-Methoxy-5-nitrophenyl glycine ester]
- speed of absorbance jump on photolysis with 337 nm light ([2]; 337 nm versus 308 nm light, excimer laser): as fast as the one induced by 308 nm light
- product quantum yield from photolysis ([2]; caged glycine, estimated by comparison to 2-methoxy-5-nitrophenyl acetate as actinometric standard): 0.2
- time within which caged glycine is photolyzed / converted to products ([2]; laser pulse, absorbance change at 380 nm, b60: 308 or 337 nm): ≤ 3 μs
- half-life ([5]; buffer, pH 4, pH 4.0, read-out: time constant τ for hydrolysis (converted)): ~3 h
- half-life ([5]; hepes buffer, pH 7.1, pH 7.1 (neutral pH, Hepes buffered solution), room temperature (22-24° C.), absorbance at 310 nm, read-out: time constant of spontaneous hydrolysis): 0.102 h
- effect of caged glycine on current response to free glycine ([1]; 170 μM glycine mixed 1:1 with 1.1 mM caged glycine ester in pH 4 buffer, versus control 85 μM free glycine): An identical response was produced
- activation of whole cell current by caged glycine ([1]; caged glycine at pH 4.0 mixed with external buffer, final pH 7.1, -40 mV, 22° C., mouse cortical neurons): did not activate any whole cell current
- effect on glycine receptors or their response to glycine [1]: Neither the caged compound nor the 2-methoxy-5-nitrophenol photolysis product affected the glycine receptors or modified their response to glycine
- inhibition or activation by caged glycine ([1]; mouse cortical neurons, pH 7.1, -40 mV): no observable inhibition or activation
- time thawed pH 4 solution could be used without detectable glycine currents in the preincubation baseline ([6]; frozen aliquots of freshly prepared caged glycine pH 4 solution, thawed before application with the mixer): up to 20 min
- opening of glycine receptor channels on irradiation ([6]; laser pulse at 337 nm, mouse cerebral cortical neurons equilibrated with caged glycine): glycine receptor channels were opened
- rate of rising phase of whole-cell current ([6]; lowest trace, 10 μm (so in the source) glycine released by photolysis): 42 s⁻¹
- rate of rising phase of whole-cell current ([6]; middle trace, 18 μM glycine released by photolysis): 40 s⁻¹
- rate of rising phase of whole-cell current ([6]; upper trace, 35 μM free glycine released by photolysis): 54 s⁻¹
